Where two headings read alike, the source gives them in different places.
Assays:
[1] = test system: primary human T-cells; assay: Proliferation assay after 5 days (CellTiter-Glo, CD3 stimulation; PBS counter screen); type: cell-based; settings: T-cell, 120 h, CD3 stimulation; for Emax: 5 days, normalized to reference compound A1 as stimulator control = 100%, DMSO neutral control, read-out: Emax proliferation (% activation); for EC50: primary human T-cells, CellTiter-Glo after 5 days, EC50 of fitted sigmoidal curve, read-out: Tcell Proliferation CD3 EC50
Outline: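 After compound addition to medium-only plates, cells are cultured 5 days, equilibrated to room temperature, mixed with an equal volume of CellTiter-Glo 2.0 and rocked 15 min before luminescence is read. Signal reflects ATP content, taken as proportional to cell number.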

[2] = test system: primary human T-cells

Row | Structure (SMILES) | Emax ([1]; Homo sapiens) [%] | EC50 ([1]; Homo sapiens) [nM] | EC50 [2] [nM] | EC50 [1] [nM]
1 | COC(F)(c1nc(-c2cc3c(cc2F)S(=O)(=O)C[C@H](N)C(=O)N3Cc2ccccc2)no1)C(F)(F)F (stereo partly drawn) [Example 351, (3R)-3-amino-5-benzyl-8-fluoro-1,1-dioxo-7-[5-(1,2,2,2-tetrafluoro-1-methoxy-ethyl)-1,2,4-oxadiazol-3-yl]-2,3-dihydro-1λ^6,5-benzothiazepin-4-one] | 107 | 113 | 288 | –
2 | CN(C)C(=O)c1nc(-c2cc3c(cc2F)S(=O)(=O)C[C@H](N)C(=O)N3Cc2ccc(OC(F)(F)C(F)F)cc2)no1 [Example 352, 3-[(3R)-3-amino-8-fluoro-1,1,4-trioxo-5-[[4-(1,1,2,2-tetrafluoroethoxy)phenyl]methyl]-2,3-dihydro-1λ^6,5-benzothiazepin-7-yl]-N,N-dimethyl-1,2,4-oxadiazole-5-carboxamide] | 100 | 768 | 5740 | –
3 | CC(C)(C)c1nc(-c2cc3c(cc2F)S(=O)(=O)C[C@H](N)C(=O)N3Cc2ccc(OCC3CCOCC3)cc2)no1 [Example 353, (3R)-3-amino-7-(5-tert-butyl-1,2,4-oxadiazol-3-yl)-8-fluoro-1,1-dioxo-5-[[4-(tetrahydropyran-4-ylmethoxy)phenyl]methyl]-2,3-dihydro-1λ^6,5-benzothiazepin-4-one] | 108 | 7240 | 3250 | –
4 | CC(C)(C)NC(=O)c1nc(-c2ccc3c(c2)N(Cc2ccc(Cl)cc2)C(=O)[C@@H](N)CS3(=O)=O)no1 [Example 354, 3-[(3R)-3-amino-5-[(4-chlorophenyl)methyl]-1,1,4-trioxo-2,3-dihydro-1λ^6,5-benzothiazepin-7-yl]-N-tert-butyl-1,2,4-oxadiazole-5-carboxamide] | 77 | 4710 | > 10000 | –
5 | CC(C)(C)NC(=O)c1nc(-c2ccc3c(c2)N(Cc2ccc(OC(F)(F)F)cc2)C(=O)[C@@H](N)CS3(=O)=O)no1 [Example 355, 3-[(3R)-3-amino-1,1,4-trioxo-5-[[4-(trifluoromethoxy)phenyl]methyl]-2,3-dihydro-1λ^6,5-benzothiazepin-7-yl]-N-tert-butyl-1,2,4-oxadiazole-5-carboxamide] | 65 | 1620 | 6050 | –
6 | CC(C)(F)c1nc(-c2cc3c(cc2F)S(=O)(=O)C[C@H](N)C(=O)N3Cc2ccc(F)cc2)no1 [Example 358, (3R)-3-amino-8-fluoro-7-[5-(1-fluoro-1-methyl-ethyl)-1,2,4-oxadiazol-3-yl]-5-[(4-fluorophenyl)methyl]-1,1-dioxo-2,3-dihydro-1λ^6,5-benzothiazepin-4-one] | 127 | 1860 | 9450 | –
7 | C#CCC(C)(C)c1nnc(-c2cc3c(cc2F)S(=O)(=O)C[C@H](N)C(=O)N3Cc2ccc(C3(C(F)(F)F)N=N3)cc2)o1 [Example 359, (3R)-3-amino-7-[5-(1,1-dimethylbut-3-ynyl)-1,3,4-oxadiazol-2-yl]-8-fluoro-1,1-dioxo-5-[[4-[3-(trifluoromethyl)diazirin-3-yl]phenyl]methyl]-2,3-dihydro-1λ^6,5-benzothiazepin-4-one] | 115 | 81.7 | 208 | –
8 | CC(C)(C)c1nnc(-c2ccc3c(c2)N(Cc2ccc(OC(F)(F)F)cc2)C(=O)[C@@H](N)CS3(=O)=O)o1 [Example 360, (3R)-3-amino-7-(5-tert-butyl-1,3,4-oxadiazol-2-yl)-1,1-dioxo-5-[[4-(trifluoromethoxy)phenyl]methyl]-2,3-dihydro-1λ^6,5-benzothiazepin-4-one] | 103 | 384 | 922 | –
9 | CC(N)(c1nnc(-c2ccc3c(c2)N(Cc2ccc(Cl)cc2)C(=O)[C@@H](N)CS3(=O)=O)o1)C(F)(F)F (stereo partly drawn) [Example 362, (3R)-3-amino-7-[5-(1-amino-2,2,2-trifluoro-1-methyl-ethyl)-1,3,4-oxadiazol-2-yl]-5-[(4-chlorophenyl)methyl]-1,1-dioxo-2,3-dihydro-1λ^6,5-benzothiazepin-4-one] | 84 | 3720 | 1730 | –
10 | N[C@H]1CS(=O)(=O)c2ccc(-c3nnc(C(F)(F)C(F)(F)F)o3)cc2N(Cc2ccc(Cl)cc2)C1=O [Example 363, (3R)-3-amino-5-[(4-chlorophenyl)methyl]-1,1-dioxo-7-[5-(1,1,2,2,2-pentafluoroethyl)-1,3,4-oxadiazol-2-yl]-2,3-dihydro-1λ^6,5-benzothiazepin-4-one] | 50 | – | 2170 | > 10000
11 | CC(C)(C#N)c1nnc(-c2ccc3c(c2)N(Cc2ccc(Cl)cc2)C(=O)[C@@H](N)CS3(=O)=O)o1 [Example 364, 2-[5-[(3R)-3-amino-5-[(4-chlorophenyl)methyl]-1,1,4-trioxo-2,3-dihydro-1λ^6,5-benzothiazepin-7-yl]-1,3,4-oxadiazol-2-yl]-2-methyl-propanenitrile] | 108 | 928 | 981 | –
12 | COC1(c2nnc(-c3ccc4c(c3)N(Cc3ccc(Cl)cc3)C(=O)[C@@H](N)CS4(=O)=O)o2)CC1 [Example 365, (3R)-3-amino-5-[(4-chlorophenyl)methyl]-7-[5-(1-methoxycyclopropyl)-1,3,4-oxadiazol-2-yl]-1,1-dioxo-2,3-dihydro-1λ^6,5-benzothiazepin-4-one] | 142 | 686 | 957 | –
13 | N[C@H]1CS(=O)(=O)c2ccc(-c3nnc(C4(C(F)(F)F)CC4)o3)cc2N(Cc2ccc(Cl)cc2)C1=O [Example 366, (3R)-3-amino-5-[(4-chlorophenyl)methyl]-1,1-dioxo-7-[5-[1-(trifluoromethyl)cyclopropyl]-1,3,4-oxadiazol-2-yl]-2,3-dihydro-1λ^6,5-benzothiazepin-4-one] | 106 | 677 | 584 | –
14 | CC(C#N)c1nnc(-c2ccc3c(c2)N(Cc2ccc(Cl)cc2)C(=O)[C@@H](N)CS3(=O)=O)o1 (stereo partly drawn) [Example 367, 2-[5-[(3R)-3-amino-5-[(4-chlorophenyl)methyl]-1,1,4-trioxo-2,3-dihydro-1λ^6,5-benzothiazepin-7-yl]-1,3,4-oxadiazol-2-yl]propanenitrile] | 87 | 3690 | 576 | –
15 | COC(C)(C)c1nnc(-c2ccc3c(c2)N(Cc2ccc(Cl)cc2)C(=O)[C@@H](N)CS3(=O)=O)o1 [Example 368] | 103 | 6560 | 5550 | –
16 | N[C@H]1CS(=O)(=O)c2ccc(-c3nnc(C(F)C(F)(F)F)o3)cc2N(Cc2ccc(Cl)cc2)C1=O (stereo partly drawn) [Example 369, (3R)-3-amino-5-[(4-chlorophenyl)methyl]-1,1-dioxo-7-[5-(1,2,2,2-tetrafluoroethyl)-1,3,4-oxadiazol-2-yl]-2,3-dihydro-1λ^6,5-benzothiazepin-4-one] | 114 | – | 1700 | 466
17 | COC(C#N)c1nnc(-c2ccc3c(c2)N(Cc2ccc(Cl)cc2)C(=O)[C@@H](N)CS3(=O)=O)o1 (stereo partly drawn) [Example 370, 2-[5-[(3R)-3-amino-5-[(4-chlorophenyl)methyl]-1,1,4-trioxo-2,3-dihydro-1λ^6,5-benzothiazepin-7-yl]-1,3,4-oxadiazol-2-yl]-2-methoxy-acetonitrile] | 31 | > 10000 | 5100 | –

From US20240368150A1 (Hoffmann-La Roche Inc., priority 2021, published 2024)
